Measured values from patent US12233088B2 (Alexion Pharmaceuticals, Inc., priority 2017, dated 2025).
Where two headings read alike, the source gives them in different places.

Tests used:
patients with WD = system: patients with WD
Source text: Example 1 was an open-label multicenter single-arm phase 2 trial conducted in 28 adults with a diagnosis of WD established by a Leipzig score of ≥4.
Data were collected from the first 72 weeks of the extension period for the following parameters: (a) NCC levels, corrected for bound copper contained in tetrathiomolybdate-copper-albumin complexes (NCCcorrected); (b) Liver status, measured using standard laboratory measures and also by Model for End-Stage Liver Disease (MELD) score (based on bilirubin, creatinine and international normalized ratio [INR]); (c) Patient-reported disability using Unified Wilson Disease Rating Scale (UWDRS) part II, and neurological status using UWDRS part III; and (d) Safety is shown below.

[1] = system: Wilson disease patients with and without cirrhosis
Procedure: Mortality in Wilson disease is usually secondary to decompensated hepatic cirrhosis and liver failure; therefore, liver function is an important factor in determining appropriate treatment regimens. The outcome of patients with and without cirrhosis using in the patient pool of Example 1, supplemented with week 48 data generated in the 3-year extension phase of the initial trial, was analyzed.
For the analyses described in this example, patients were characterized as having cirrhosis based on medical history (biopsy or imaging) or based on estimates of AST to Platelet Ratio Index (APRI) (AST refers to aspartate aminotransferase). Summary statistics were calculated for Baseline demographics, NCCcorr levels, ALT levels, MELD and modified Nazer scores, Albumin concentration, International normalized ratio (INR), Disability and neurological status using the unified Wilson's disease rating scale, and adverse events (AEs). […] Patient flow for the extension study is depicted in FIG. 12.

[2] = core study, patients without cirrhosis
[3] = extension phase, with cirrhosis

C[N+](C)(C)CCO.C[N+](C)(C)CCO.[SH-].[SH-].[S]=[Mo]=[S] [WTX101, bis-choline tetrathiomolybdate]
Relationship to the study drug as deemed by the investigator: Acute lower back pain (week 37) (patients with WD; SAE after week 24): Unrelated
Relationship to the study drug as deemed by the investigator: Dizziness (week 113) (patients with WD; SAE after week 24): Possible
Relationship to the study drug as deemed by the investigator: Loss of consciousness (week 113) (patients with WD; SAE after week 24): Possible
Relationship to the study drug as deemed by the investigator: Mania (week 38) (patients with WD; SAE after week 24): Unlikely
Relationship to the study drug as deemed by the investigator: Neutropenia (week 36) (patients with WD; SAE after week 24): Possible
Relationship to the study drug as deemed by the investigator: Exacerbation of WD (week 46) (patients with WD; SAE after week 24, likely due to disease progression): Possible
SAE Acute lower back pain (week 37), number of patients (patients with WD; after week 24): 1
SAE Dizziness (week 113), number of patients (patients with WD; after week 24): 1
SAE Exacerbation of WD (week 46), number of patients (patients with WD; after week 24): 1
SAE Loss of consciousness (week 113), number of patients (patients with WD; after week 24): 1
SAE Mania (week 38), number of patients (patients with WD; after week 24): 1
number of patients with ≥1 SAEs (patients with WD; after week 24): 5 patients
number of serious adverse events (patients with WD; after week 24): 6 events in
SAE Neutropenia (week 36), number of patients (patients with WD; after week 24, grade 1, normalized with dose reduction): 1
INR, mean ± standard error (patients with WD; beginning of extension period (week 24), N=22): 1.06 ± 0.0
NCCcorrected, mean ± standard error (patients with WD; beginning of extension period (week 24), N=22, baseline 3.6 ± 0.4): 0.9 ± 0.2 µM
UWDRS part II score, mean ± standard error (patients with WD; beginning of extension period (week 24), N=22, baseline 6.6 ± 1.9): 4.1 ± 1.8
MELD score, mean ± standard error (patients with WD; beginning of extension period (week 24), N=22, baseline 7.7 ± 0.4): 7.2 ± 0.4
UWDRS part III score, mean ± standard error (patients with WD; beginning of extension period (week 24), N=22, baseline 22.8 ± 4.0): 16.6 ± 3.9
Albumin, mean ± standard error (patients with WD; beginning of extension period (week 24), N=22, baseline 39.2 ± 1.0): 40.9 ± 0.7 g/L
ALT, mean ± standard error (patients with WD; beginning of extension period (week 24), N=22, baseline 42.6 ± 6.2): 36.8 ± 3.9 U/L
AEs considered unrelated or unlikely related to therapy (patients with WD; between week 24 and 72): 89%
AEs mild or moderate (patients with WD; between week 24 and 72): 89%
mean INR, albumin, ALT levels and MELD score (liver function) (patients with WD; between week 24 and week 72): improved or unchanged
reversible ALT elevations requiring dose adjustments (patients with WD; extension period): not observed
hemoglobin measurements below the normal range (patients with WD; over the follow-up period): 5.2%
patients with low hemoglobin at some point (patients with WD; over the follow-up period, none below 100 g/L): 7 patients
mean UWDRS disability score and neurological signs score (patients with WD; week 24 to 72): continued improvements
subjects with neutropenia accompanied by mild anemia and low NCC levels (patients with WD; week 36 and 72, responded to dose reduction): Two
decrease in number of reported AEs and SAEs (patients with WD; weeks 1-24 to weeks 25-72): around 50%
patients with ALT elevations requiring dose adjustments ([1]; core study, patients with cirrhosis): five
patients with ALT elevations requiring dose adjustments [1, 2]: seven
patients with study withdrawal associated with ALT elevations [1, 2]: three
patients with adverse events (AEs) ([1]; core study, with cirrhosis): 10
patients with increased ALT and GGT levels (each) ([1]; core study, with cirrhosis): three
patients with increased AST levels ([1]; core study, with cirrhosis): four
patients with adverse events (AEs) ([1]; core study, without cirrhosis): 12
patients with increased ALT and GGT levels (each) ([1]; core study, without cirrhosis): five
patients with increased AST levels ([1]; core study, without cirrhosis): four
patients with tremor (AE) ([1]; core study, without cirrhosis): four
patients with SAEs possibly related to WTX101 ([1]; extension phase, cirrhosis group, neutropenia, hepatolenticular degeneration): two
patients who experienced AEs [1, 3]: nine
patients with urinary tract infection [1, 3]: four
patients who experienced AEs ([1]; extension phase, without cirrhosis): six
liver function ([1]; up to 48 weeks, patients with and without cirrhosis): stable
ALT elevations requiring dose adjustments ([1]; week 24 to week 48, regardless of cirrhosis status): no ALT elevations requiring dose adjustments occurred
patients with severe adverse events (SAEs) ([1]; weeks 0-48, with cirrhosis): four
patients with severe adverse events (SAEs) ([1]; weeks 0-48, without cirrhosis): six
